In patent EP1172443A1, “METHOD FOR SCREENING CYSTEINE PROTEASE INHIBITOR” (YAMANOUCHI PHARMACEUTICAL CO. LTD., priority 1999, dated 2000):
Peptide text beside a SMILES is read from it. * marks the point of attachment. Cbz = O=C(OCc1ccccc1)*; CH2F = FC*

Experiments:
caspase 3 [1] = target: T1, caspase 3 (Homo sapiens, UniProt P42574); experiment: Screening method of caspase 3 inhibitor, in the presence of zinc ion (substrate solution containing 3 mM ZnSO4); type: biochemical; settings: for ratio (enzyme activity (+Zn)/enzyme activity (-Zn)): test compound 100 µM, 25 ng/100 µL human caspase 3, reaction time 15 minutes; for IC50: in the presence of zinc ion
T1 construct: the N-terminal region encoding a protein with a molecular weight of about 17 kDa (p17); C-terminal region encoding a protein with a molecular weight of about 12 kDa (p12); made in house; host or cells: Escherichia coli BL21 (DE3) pLysS, plasmid pET3a
T1 sequence (P42574 29-175 limits assumed): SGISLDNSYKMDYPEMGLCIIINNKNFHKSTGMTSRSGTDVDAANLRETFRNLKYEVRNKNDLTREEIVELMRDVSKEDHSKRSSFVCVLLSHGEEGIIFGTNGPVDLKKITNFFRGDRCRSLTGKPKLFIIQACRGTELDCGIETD
T1 sequence (P42574 176-277 limits assumed): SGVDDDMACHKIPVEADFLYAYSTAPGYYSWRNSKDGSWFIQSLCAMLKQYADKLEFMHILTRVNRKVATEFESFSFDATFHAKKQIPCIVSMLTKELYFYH
Protocol: (§1) From human brain cDNA, the N-terminal region encoding a protein with a molecular weight of about 17 kDa (p17) and C-terminal region encoding a protein with a molecular weight of about 12 kDa (p12) were amplified by PCR, and then subcloned into an Escherichia coli expression plasmid (pET3a). Using these plasmids, a host bacterium for expressing proteins (BL21 (DE3) pLysS) was transformed. Then, the transformed bacterium was cultured in M9 medium and an active caspase 3 was prepared. Firstly, fungus body recovered from M9 medium was broken by sonication and an inclusion body was recovered by centrifugation. The inclusion body was solubilized under denatured conditions using 3M guanidine solution, and after mixing with p17 polypeptide and p12 polypeptide, diluted with a dialysis solution. The whole was left at room temperature for 1 hour at this situation, and after regeneration, concentrated. After the sample was dialyzed to exchange the buffer solution, insoluble proteins were removed by ultracentrifugation (100,000 X G, 30 minutes). Upon quantitative protein determination, about 30 mg of a protein was recovered.
Solution A comprising composition of 50 mM HEPES, pH 7.5, 10% (w/v) saccharose, and 0.1% (w/v) 3-[(3-cholamidopropyl)dimethylammonio]-1-propane sulfonate (CHAPS) was used as the base of a liquid for enzymatic reaction with adding a test compound, if necessary. […] In a control experiment, caspase 3 mixed with DMSO instead of the test compound was used. Then, 100 µL of 50 µM Ac-Asp-Glu-Val-Asp-MCA (Solution A, Peptide Kenkyusyo, 3171-v) as a substrate solution were added thereto to start reaction. Time course of the decomposition of the substrate were measured on a fluorescent photometer (Corona Denki, MTP-32, excitation wavelength/360 nm, emission waverangeth/450 nm or SLT, fluostar, excitation wavelength/380 nm, emission wavelength/460 nm) and an enzyme activity of the test compound-added group relative to the control was calculated.
(§2) The effects of the test compound at various concentrations on the enzyme activity were measured in a similar manner to the case in the absence of zinc ion as described in the section 1). However, a substrate solution containing 3 mM ZnSO4 was used.
The enzyme activities calculated in the absence of zinc ion (-Zn) and in the presence of zinc ion (+Zn) were compared (enzyme activity (+Zn)/enzyme activity (-Zn)).

caspase 3 [2] = target: T1, caspase 3; experiment: Examination of caspase 3 inhibitory mode in the presence of zinc (Lineweaver-Burk plots); type: biochemical
Protocol: (§3) Solution A comprising composition of 50 mM HEPES, pH 7.5, 10% (w/v) saccharose, and 0.1% (w/v) 3-[(3-cholamidopropyl)dimethylammonio]-1-propane sulfonate (CHAPS) was used as the base of a liquid for enzymatic reaction with adding a test compound, if necessary. A 10 ng/100 µL human caspase 3 solution (Solution B: Solution A + 10 mM dithiothreitol (DTT)) and a test compound at different concentrations were mixed and the mixture was left at room temperature for 30 minutes. In a control experiment, caspase 3 mixed with DMSO instead of the test compound was used. Then, 100 µL of 50 µM Ac-Asp-Glu-Val-Asp-MCA (Solution A, Peptide Kenkyusyo, 3171-v) as a substrate solution were added thereto to start reaction. Time course of the decomposition of the substrate were measured on a fluorescent photometer (Corona Denki, MTP-32, excitation wavelength/360 nm, emission waverangeth/450 nm or SLT, fluostar, excitation wavelength/380 nm, emission wavelength/460 nm) and an enzyme activity of the test compound-added group relative to the control was calculated.
as §2
The caspase 3 inhibitory mode of Compound A in the presence of zinc was examined according to the methods 1) and 2) of Example 3. […] The inhibitory mode was analyzed with Lineweaver-Burk plots (double reciprocal plots).
The caspase 3 inhibitory mode of Compound B in the presence of zinc was examined according to the methods 1) and 2) of Example 3. […] The inhibitory mode was analyzed with Lineweaver-Burk plots (double reciprocal plots).
The caspase 3 inhibitory mode of Compound C in the presence of zinc was examined according to the methods 1) and 2) of Example 3. […] The inhibitory mode was analyzed with Lineweaver-Burk plots (double reciprocal plots).

caspase 3 [3] = target: T1, caspase 3; experiment: Screening method of caspase 3 inhibitor, in the absence of zinc ion (fluorogenic substrate Ac-Asp-Glu-Val-Asp-MCA); type: biochemical; settings: for inhibition at 100 µM: at 100 µM in the absence of zinc ion, read-out: enzyme activity inhibited
Protocol: as §1
as §3, with “Then, 100 µL of 50 µM Ac-Asp-Glu-Val-Asp-MCA (Solution A, Peptide Kenkyusyo, 3171-v) as a substrate solution were added thereto to start reaction.” left out

rat hippocampal neuron = experiment: Apoptosis inhibitory action: suppression of DNA fragmentation induced by Etoposide; type: cell-based
Protocol: Cultured rat hippocampal neuron was prepared according to a usual method (Neurochem. Int., 31(5), 715-722, 1997). Brain was taken out of a fetus of rat at day 19 of gestation, and hippocampus was picked up under a stereomicroscope. The hippocampus was treated with an enzyme, dispersed by pipetting several times, and cell clusters were removed through a filter to prepare a cell suspension. The cell was cultured at a concentration of 1.2 x 10^5 cells/cm^2 in a 12-well plate coated with polylysine. A "culture medium for neuron" manufactured by Sumitomo Bakelite Co., Ltd. was used as the culture liquid. The neuronal cell at 13 to 16 days of culture was used. Etoposide was employed for inducing apoptosis of the neuronal cell. The induction of DNA fragments was evaluated as a marker of apoptosis.
Cell stimulation was carried out by replacing the cell culture medium with a serum-free medium containing 3 µg/mL Etoposide. After 6 hours from the start of the stimulation, the cell was recovered. TaKaRa ApopLadder Ex kit was used for the extraction of fragmented DNA. The fragmented DNA were subjected to electrophoresis followed by staining with CYBR Green, and the fluorescence intensity of the DNA was measured by means of a scanner manufactured by Molecular Dynamics Co.

Structure (SMILES) | ratio (enzyme activity (+Zn)/enzyme activity (-Zn)) (caspase 3 [1]) | caspase 3 inhibitory mode (caspase 3 [2]) | inhibition at 100 µM (caspase 3 [3]) [%] | IC50 (caspase 3 [1]) [nM] | also measured
ON=C(c1nc2ccccc2[nH]1)c1nc2ccccc2[nH]1 [Compound B, bis(1H-benzimidazol-2-yl)ketone oxime] | 0.44 | substrate-competitive and reversible |  |  | 
CCCN1C(=O)C2(Oc3c(c(=O)n(CCC)c4ncccc34)S2)C(=O)c2cccnc21 (centres unmarked) [Compound C, 1,5'-dipropylspiro[1,8-naphthyridine-3(2H),2'-[1,3]oxathiolo[4,5-c][1,8]naphthyridine]-2,4,4' (1H,5'H)-trione] |  | substrate-competitive and reversible | 17 | 1200 | IC50 (rat hippocampal neuron; Rattus norvegicus, Hippocampal neuron, 3 µg/mL Etoposide, 6 hours, compound at 10, 25, 50 µM, no zinc added to medium): 17000 nM
COC(=O)C[C@H](NC(=O)[C@H](C)NC(=O)[C@@H](NC(=O)OCc1ccccc1)C(C)C)C(=O)CF [z-VAD.FMK, z-Val-Ala-Asp(OMe)-CH2F, reference compound] (Cbz-Val-Ala-Asp(OMe)-CH2F) |  |  |  |  | IC50 (caspase 3 [3]; in the absence of zinc ion, reaction time 30 minutes): 510 nM; effect of zinc ion on the caspase 3 inhibitory activity (caspase 3 [1]; comparison of presence and absence of zinc ion): no remarkable enhancing effect; IC50 (caspase 3 [1]; reaction time 30 minutes): 550 nM
c1ccc2[nH]c(Cc3nc4ccccc4[nH]3)nc2c1 [Compound A, bis(1H-benzimidazol-2-yl)methane] | 0.37 | substrate-competitive and reversible |  |  | 
CCCN1C(=O)C2(Oc3c(c(=O)n(CCC)c4ccccc34)S2)C(=O)c2ccccc21 (centres unmarked) [Compound D] |  |  | 13 | 350 | apoptosis inhibitory action (rat hippocampal neuron; at a concentration of 33.3 µM, added together with Etoposide): strong apoptosis inhibitory action
